For 26 compounds, IC50 results are on record in patent US8003785B2 (Takeda Pharmaceutical Company Limited, priority 2008, dated 2011).

The target in this test is T1, PLK1 (Homo sapiens, UniProt P53350).
T1 construct: Full-length, active GST-PLK1 is purified from Sf9 insect cells; made in house; host or cells: Sf9 insect cells
T1 sequence (P53350 whole entry): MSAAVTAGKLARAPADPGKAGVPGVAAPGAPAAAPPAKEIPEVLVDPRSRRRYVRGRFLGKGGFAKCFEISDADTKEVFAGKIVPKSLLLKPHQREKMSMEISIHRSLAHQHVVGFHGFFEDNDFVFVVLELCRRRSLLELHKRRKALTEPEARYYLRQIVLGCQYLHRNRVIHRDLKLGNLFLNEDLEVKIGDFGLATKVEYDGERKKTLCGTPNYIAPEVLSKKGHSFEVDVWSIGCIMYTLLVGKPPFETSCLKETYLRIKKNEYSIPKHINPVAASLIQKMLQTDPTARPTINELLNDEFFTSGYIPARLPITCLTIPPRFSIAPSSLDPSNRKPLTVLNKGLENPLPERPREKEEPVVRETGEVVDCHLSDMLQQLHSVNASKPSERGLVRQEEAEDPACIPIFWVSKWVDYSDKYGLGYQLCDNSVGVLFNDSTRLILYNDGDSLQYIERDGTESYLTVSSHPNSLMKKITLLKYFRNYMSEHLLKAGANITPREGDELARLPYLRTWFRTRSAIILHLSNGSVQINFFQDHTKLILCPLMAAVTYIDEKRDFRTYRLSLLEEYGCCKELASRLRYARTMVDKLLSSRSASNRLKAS
In words: Biochemical Characterization Assay: HTRF kinase assay, GST-PLK1 phosphorylation of GST-p53. As to conditions: GST-PLK1, GST-p53 substrate. The gist of the method: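 Full-length active GST-PLK1 (Sf9, 3 ug/mL) phosphorylated full-length GST-p53 (E. coli) in Kinase Assay Buffer for 35 min at 37 °C. Stopped with EDTA; phospho-p53 detected by HTRF with anti-phospho-p53, Eu-anti-rabbit and APC-anti-GST antibodies.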
A general note: Time-resolved FRET reads energy transfer from a long-lived donor to a nearby acceptor.
In turn, `COc1cc(C(=O)NC2CCNCC2)ccc1Nc1ncc2c(n1)N(C1CCCCC1)CC(F)(F)C(=O)N2C` [Example I-251, 4-(9-cyclohexyl-7,7-difluoro-5-methyl-6-oxo-6,7,8,9-tetrahydro-5H-pyrimido[4,5-b][1,4]diazepin-2-ylamino)-3-methoxy-N-piperidin-4-yl-benzamide] showed a half-maximal inhibitory concentration (IC50) of 1 to 50 nM.

Consider `COc1cc(C(=O)NC2CCOCC2)ccc1Nc1ncc2c(n1)N(C1CCCCC1)CC(F)(F)C(=O)N2C` [Example I-252, 4-(9-cyclohexyl-7,7-difluoro-5-methyl-6-oxo-6,7,8,9-tetrahydro-5H-pyrimido[4,5-b][1,4]diazepin-2-ylamino)-3-methoxy-N-(tetrahydro-pyran-4-yl)-benzamide], for which the IC50 was in the range of 1 to 50 nM.

Compound `COc1cc(C(=O)NCCN(C)C)ccc1Nc1ncc2c(n1)N(C1CCCCC1)CC(F)(F)C(=O)N2C` [Example I-253, 4-(9-cyclohexyl-7,7-difluoro-5-methyl-6-oxo-6,7,8,9-tetrahydro-5H-pyrimido[4,5-b][1,4]diazepin-2-ylamino)-N-(2-dimethylamino-ethyl)-3-methoxy-benzamide] yielded a half-inhibitory concentration (IC50) of 1 to 50 nM.

`COc1cc(C(=O)NCCCN(C)C)ccc1Nc1ncc2c(n1)N(C1CCCCC1)CC(F)(F)C(=O)N2C` [Example I-254, 4-(9-cyclohexyl-7,7-difluoro-5-methyl-6-oxo-6,7,8,9-tetrahydro-5H-pyrimido[4,5-b][1,4]diazepin-2-ylamino)-N-(3-dimethylamino-propyl)-3-methoxy-benzamide] had an IC50 of 1 to 50 nM.

`CCN1CCC(NC(=O)c2ccc(Nc3ncc4c(n3)N(C3CCCCC3)CC(F)(F)C(=O)N4C)c(OC)c2)CC1` [Example I-255, 4-(9-cyclohexyl-7,7-difluoro-5-methyl-6-oxo-6,7,8,9-tetrahydro-5H-pyrimido[4,5-b][1,4]diazepin-2-ylamino)-N-(1-ethyl-piperidin-4-yl)-3-methoxy-benzamide]: the concentration for half-maximal inhibition (IC50) was in the range of 1 to 50 nM.

Turning to `CN1C(=O)C(F)(F)CN(C2CCCCC2)c2nc(Nc3ccc(C(=O)O)cc3)ncc21` [Example I-256, 4-(9-cyclohexyl-7,7-difluoro-5-methyl-6-oxo-6,7,8,9-tetrahydro-5H-pyrimido[4,5-b][1,4]diazepin-2-ylamin)-benzoic acid], the half-maximal inhibitory concentration (IC50) lay in the range of 1 to 50 nM.

Consider `CN1C(=O)C(F)(F)CN(C2CCCCC2)c2nc(Nc3ccc(C(N)=O)cc3)ncc21` [Example I-257, 4-(9-cyclohexyl-7,7-difluoro-5-methyl-6-oxo-6,7,8,9-tetrahydro-5H-pyrimido[4,5-b][1,4]diazepin-2-ylamino)-benzamide], for which the IC50 fell in the range of 1 to 50 nM.

In the case of `CNC(=O)c1ccc(Nc2ncc3c(n2)N(C2CCCCC2)CC(F)(F)C(=O)N3C)cc1` [Example I-258, 4-(9-cyclohexyl-7,7-difluoro-5-methyl-6-oxo-6,7,8,9-tetrahydro-5H-pyrimido[4,5-b][1,4]diazepin-2-ylamino)-N-methyl-benzamide], the IC50 was 1 to 50 nM.

On to `CN1C(=O)C(F)(F)CN(C2CCCCC2)c2nc(Nc3ccc(C(=O)NC4CCNCC4)cc3)ncc21` [Example I-260, 4-(9-cyclohexyl-7,7-difluoro-5-methyl-6-oxo-6,7,8,9-tetrahydro-5H-pyrimido[4,5-b][1,4]diazepin-2-ylamino)-N-piperidin-4-yl-benzamide], for which the IC50 is 1 to 50 nM.

Regarding `CCN1CCC(NC(=O)c2ccc(Nc3ncc4c(n3)N(C3CCCCC3)CC(F)(F)C(=O)N4C)cc2)CC1` [Example I-261, 4-(9-cyclohexyl-7,7-difluoro-5-methyl-6-oxo-6,7,8,9-tetrahydro-5H-pyrimido[4,5-b][1,4]diazepin-2-ylamino)-N-(1-ethyl-piperidin-4-yl)-benzamide], the IC50 is 1 to 50 nM.

Regarding `CN1CCC(NC(=O)c2ccc(Nc3ncc4c(n3)N(C3CCCCC3)CC(F)(F)C(=O)N4C)cc2)CC1` [Example I-262, 4-(9-cyclohexyl-7,7-difluoro-5-methyl-6-oxo-6,7,8,9-tetrahydro-5H-pyrimido[4,5-b][1,4]diazepin-2-ylamino)-N-(1-methyl-piperidin-4-yl)-benzamide], the IC50 is 1 to 50 nM.

Regarding `CN1C(=O)C(F)(F)CN(C2CCCCC2)c2nc(Nc3ccc(C(=O)NC4CCOCC4)cc3)ncc21` [Example I-263, 4-(9-cyclohexyl-7,7-difluoro-5-methyl-6-oxo-6,7,8,9-tetrahydro-5H-pyrimido[4,5-b][1,4]diazepin-2-ylamino)-N-(tetrahydro-pyran-4-yl)-benzamide], the IC50 lay within 1 to 50 nM.

For `CN(C)CCNC(=O)c1ccc(Nc2ncc3c(n2)N(C2CCCCC2)CC(F)(F)C(=O)N3C)cc1` [Example I-264, 4-(9-cyclohexyl-7,7-difluoro-5-methyl-6-oxo-6,7,8,9-tetrahydro-5H-pyrimido[4,5-b][1,4]diazepin-2-ylamino)-N-(2-dimethylamino-ethyl)-benzamide], the IC50 was in the range of 1 to 50 nM.

Regarding `CN(C)CCCNC(=O)c1ccc(Nc2ncc3c(n2)N(C2CCCCC2)CC(F)(F)C(=O)N3C)cc1` [Example I-265, 4-(9-cyclohexyl-7,7-difluoro-5-methyl-6-oxo-6,7,8,9-tetrahydro-5H-pyrimido[4,5-b][1,4]diazepin-2-ylamino)-N-(3-dimethylamino-propyl)-benzamide], the IC50 was 1 to 50 nM.

`COc1cc(C(=O)NC2CCN(CC(F)F)CC2)ccc1Nc1ncc2c(n1)N(C1CCCCC1)CC(F)(F)C(=O)N2C` [Example I-266, 4-(9-cyclohexyl-7,7-difluoro-5-methyl-6-oxo-6,7,8,9-tetrahydro-5H-pyrimido[4,5-b][1,4]diazepin-2-ylamino)-N-[1-(2,2-difluoro-ethyl)-piperidin-4-yl]-3-methoxy-benzamide] gave an IC50 of 1 to 50 nM.

Consider `COc1cc(C(=O)NC2CCN(CCO)CC2)ccc1Nc1ncc2c(n1)N(C1CCCCC1)CC(F)(F)C(=O)N2C` [Example I-267, 4-(9-cyclohexyl-7,7-difluoro-5-methyl-6-oxo-6,7,8,9-tetrahydro-5H-pyrimido[4,5-b][1,4]diazepin-2-ylamino)-N-[1-(2-hydroxy-ethyl)-piperidin-4-yl]-3-methoxy-benzamide], for which the IC50 lay in the range of 1 to 50 nM.

In turn, `COc1cc(C(=O)NC2CCN(S(C)(=O)=O)CC2)ccc1Nc1ncc2c(n1)N(C1CCCCC1)CC(F)(F)C(=O)N2C` [Example I-268, 4-(9-cyclohexyl-7,7-difluoro-5-methyl-6-oxo-6,7,8,9-tetrahydro-5H-pyrimido[4,5-b][1,4]diazepin-2-ylamino)-N-(1-methanesulfonyl-piperidin-4-yl)-3-methoxy-benzamide] registered an IC50 of 51 to 500 nM.

Compound `COc1cc(C(=O)O)ccc1Nc1ncc2c(n1)N(CCc1cccs1)CC(F)(F)C(=O)N2C` [Example I-269, 4-[7,7-difluoro-5-methyl-6-oxo-9-(2-thiophen-2-yl-ethyl)-6,7,8,9-tetrahydro-5-pyrimido[4,5-b]diazepin-2-ylamino]-3-methoxy-benzoic acid] displayed an IC50 of 51 to 500 nM.

The compound `COc1cc(C(=O)NC2CCN(C)CC2)ccc1Nc1ncc2c(n1)N(CCc1cccs1)CC(F)(F)C(=O)N2C` [Example I-270, 4-[7,7-difluoro-5-methyl-6-oxo-9-(2-thiophen-2-yl-ethyl)-6,7,8,9-tetrahydro-5H-pyrimido[4,5-b][1,4]diazepin-2-ylamino]-3-methoxy-N-(1-methyl-piperidin-4-yl)-benzamide] returned an IC50 of 1 to 50 nM.

In turn, `COc1cc(C(N)=O)ccc1Nc1ncc2c(n1)N(CCc1cccs1)CC(F)(F)C(=O)N2C` [Example I-271, 4-[7,7-difluoro-5-methyl-6-oxo-9-(2-thiophen-2-yl-ethyl)-6,7,8,9-tetrahydro-5H-pyrimido[4,5-b][1,4]diazepin-2-ylamino]-3-methoxy-benzamide] gave a 50% inhibitory concentration (IC50) of 51 to 500 nM.

For the compound `CNC(=O)c1ccc(Nc2ncc3c(n2)N(CCc2cccs2)CC(F)(F)C(=O)N3C)c(OC)c1` [Example I-272, 4-[7,7-difluoro-5-methyl-6-oxo-9-(2-thiophen-2-yl-ethyl)-6,7,8,9-tetrahydro-5H-pyrimido[4,5-b][1,4]diazepin-2-ylamino]-3-methoxy-N-methyl-benzamide], the half-inhibitory concentration (IC50) was in the range of 1 to 50 nM.

`COc1cc(C(=O)NCCCN(C)C)ccc1Nc1ncc2c(n1)N(CCc1cccs1)CC(F)(F)C(=O)N2C` [Example I-273, 4-[7,7-difluoro-5-methyl-6-oxo-9-(2-thiophen-2-yl-ethyl)-6,7,8,9-tetrahydro-5H-pyrimido[4,5-b][1,4]diazepin-2-ylamino]-N-(3-dimethylamino-propyl)-3-methoxy-benzamide] registered a half-inhibitory concentration (IC50) of 1 to 50 nM.

`COc1cc(C(=O)NC2CCOCC2)ccc1Nc1ncc2c(n1)N(CCc1cccs1)CC(F)(F)C(=O)N2C` [Example I-274, 4-[7,7-difluoro-5-methyl-6-oxo-9-(2-thiophen-2-yl-ethyl)-6,7,8,9-tetrahydro-5H-pyrimido[4,5-b][1,4]diazepin-2-ylamino]-3-methoxy-N-(tetrahydro-pyran-4-yl)-benzamide] gave a half-maximal inhibitory concentration (IC50) of 51 to 500 nM.

`COc1cc(C(=O)O)ccc1Nc1ncc2c(n1)N(CCc1ccccc1)CC(F)(F)C(=O)N2C` [Example I-275, 4-(7,7-difluoro-5-methyl-6-oxo-9-phenethyl-6,7,8,9-tetrahydro-5H-pyrimido[4,5-b][1,4]diazepin-2-ylamino)-3-methoxy-benzoic acid]: the IC50 is 51 to 500 nM.

With `COc1cc(C(=O)NC2CCN(C)CC2)ccc1Nc1ncc2c(n1)N(CCc1ccccc1)CC(F)(F)C(=O)N2C` [Example I-276, 4-(7,7-difluoro-5-methyl-6-oxo-9-phenethyl-6,7,8,9-tetrahydro-5!-pyrimido[4,5-b][1,4]diazepin-2-ylamino)-3-methoxy-N-(1-methyl-piperidin-4-yl)-benzamide], the 50% inhibitory concentration (IC50) fell in the range of 1 to 50 nM.

Turning to `COc1cc(C(N)=O)ccc1Nc1ncc2c(n1)N(CCc1ccccc1)CC(F)(F)C(=O)N2C` [Example I-277, 4-(7,7-difluoro-5-methyl-6-oxo-9-phenethyl-6,7,8,9-tetrahydro-5H-pyrimido[4,5-b][1,4]diazepin-2-ylamino)-3-methoxy-benzamide], the IC50 was in the range of 51 to 500 nM.

As usually defined, the IC50 is the concentration that gives 50% inhibition. Low values mean greater potency in that assay, high ones weaker potency in that assay.
